This note sets out measurements from patent publication US6960601B2, “Preparation and use of imidazole derivatives for treatment of obesity” (Bayer Pharmaceuticals Corporation, priority 2001, dated 2005).

Structures are written as SMILES.

A short description of series [1]: Measurement of brain exposure. The format is in vivo. The conditions noted are these: rat, brain homogenate, oral; 10 mg/kg p.o.; brains collected at 2 hours post-dosing; male obese Zucker fa/fa rats; read-out: brain homogenate exposure level. The method, then: Measurement of Brain Exposure
Male obese Zucker fa/fa rats were administered compounds, typically at 10 mg/kg p.o., and then brains were collected at 2 hours post-dosing for determination of brain concentration. Brains were weighed and homogenized with 4 mL 10 mM ammonium acetate buffer (pH 3), and the brain tissue homogenate samples were extracted via protein precipitation with acetonitrile. Samples were vortexed, centrifuged, and analyzed by liquid chromatography utilizing mass spectrometer selective detection (LC/MS/MS) using the heated nebulizer interface. Samples were quantitated using weighted (1/x^2) linear internal standard calibration curve. For example, when 1-(4-chlorophenyl)-2-(2-chlorophenyl)-N-(1-piperidinyl)-5-butyl-1H-imidazole-4-carboxamide was dosed at 10 mg/kg p.o., a brain homogenate exposure level of approximately 200 nM was determined; when 2-(2-chlorophenyl)-1-(4-chlorophenyl)-5-ethyl-N-[(1S,2S)-2-hydroxycyclohexyl]-1H-imidazole-4-carboxamide was dosed at 10 mg/kg p.o., a brain homogenate exposure level of approximately 200 nM was determined.

Series [2] has as its system obese Zucker fa/fa rats. As to the kind of experiment: Chronic feeding assay (body weight, food and water consumption). The format is in vivo, rat. The conditions noted are these: 10 mg/kg p.o. once a day, day 6 of treatment. The source says:
Evaluation of Compound's Efficacy on the Reduction of Body Weight and Food and Water Consumption in Obese Zucker fa/fa Rats
The purpose of this protocol is to determine the effect of chronic administration of an unknown compound on body weight and food and water consumption in obese Zucker fa/fa rats. Obese Zucker fa/fa rats are frequently used in the determination of compound efficacy in the reduction of body weight. This animal model has been successfully used in the identification and characterization of the efficacy profile of compounds that are or have been used in the management of body weight in obese humans (see, e.g., Al-Barazanji et al., Obes Res. 8:317-323, 2000; Assimacopoulos-Jeannet et al., Am. J. Physiol. 260(2 Pt 2):R278-283, 1991; Dryden et al., Horm. Metab. Res. 31:363-366, 1999; Edwards and Stevens, Pharmacol. Biochem. Behav. 47:865-872, 1994; Grinker et al., Pharmacol. Biochem. Behav. 12:265-275, 1980).
A typical study includes 60-80 male Zucker fa/fa (n=10/treatment group) with an average body weight of approximately 550 g. Rats are kept in standard animal rooms under controlled temperature and humidity and a 12/12 light dark cycle. Water and food are continuously available. Rats are single-housed in large rat shoeboxes containing grid floor. Animals are adapted to the grid floors and sham-dosed with study vehicle for at least four days before the recording of two-days baseline measurement of body weight and 24-hr food and water consumption. Rats are assigned to one of 6-8 treatment groups based upon their body weight on baseline. The groups are set up so that the mean and standard error of the mean of body weight were similar.
Animals are orally gavaged (2 mL/kg) daily before the dark phase of the LD/cycle for a pre-determined number of days (typically 6-14 days) with their assigned dose/compound. At this time, body weight, food and water consumption are measured. On the final day, animals are euthanized by CO2 inhalation, and the body weight is measured.

As for `CCCCc1c(C(=O)NN2CCCCC2)nc(-c2ccccc2Cl)n1-c1ccc(Cl)cc1` [1-(4-chlorophenyl)-2-(2-chlorophenyl)-N-(1-piperidinyl)-5-butyl-1H-imidazole-4-carboxamide], the concentration at 2 h in series [1] was roughly 0.2 µM.

Consider `CCc1c(C(=O)N[C@H]2CCCC[C@@H]2O)nc(-c2ccccc2Cl)n1-c1ccc(Cl)cc1` [2-(2-chlorophenyl)-1-(4-chlorophenyl)-5-ethyl-N-[(1S,2S)-2-hydroxycyclohexyl]-1H-imidazole-4-carboxamide], for which the concentration at 2 h in series [1] is roughly 0.2 µM.

As to `O=C(N[C@H]1CCCC[C@@H]1O)c1cn(-c2ccc(Cl)cc2)c(-c2ccccc2Cl)n1` [2-(2-chlorophenyl)-1-(4-chlorophenyl)-N-[(1S,2S)-2-hydroxycyclohexyl]-1H-imidazole-4-carboxamide], in series [2], the “increase in body weight from baseline” value is “approximately 2.4%” and the “reduction in body weight gain as compared to the vehicle control group” value is “approximately 50%”.

On to `Cl.O=C(NNc1ccc(C(F)(F)F)cc1)c1cn(-c2ccc(Cl)cc2)c(-c2ccccc2Cl)n1` [2-(2-chlorophenyl)-1-(4-chlorophenyl)-N′-[4-(trifluoromethyl)phenyl]-1H-imidazole-4-carbohydrazide hydrochloride], for which, in series [2], the “increase in body weight from baseline” value was “approximately 1.8%” and the “reduction in body weight gain as compared to the vehicle control group” value is “approximately 60%”.

The compound `Cc1c(C(=O)NC2CCCCC2)nc(-c2ccccc2Cl)n1-c1ccc([N+](=O)[O-])cc1` [Example 23, N-cyclohexyl-2-(2-chlorophenyl)-5-methyl-1-(4-nitrophenyl)-1H-imidazole-4-carboxamide] had a melting point of 217 to 220 °C.
